SMILES strings stand for the structures.

For assay [1], the system named is Plasmodium berghei. Description: Increased mean survival time in drug-sensitive Plasmodium berghei infected mice (Mus musculus) at 640 mg/kg; toxic in 5 of 5. Format: functional, organism-based. On the set-up: dose 640 mg/kg.
Assay [2] deals with Plasmodium berghei. Briefly: Increased mean survival time in drug-sensitive Plasmodium berghei infected mice (Mus musculus) at 40 mg/kg; toxic in 2 of 5. Format: functional, organism-based. On the set-up: dose 40 mg/kg.
Assay [3] relates to Plasmodium berghei. Description: Increased mean survival time in drug-sensitive Plasmodium berghei infected mice (Mus musculus) at 160 mg/kg; toxic in 5 of 5. Format: functional, organism-based. On the set-up: dose 160 mg/kg.
For assay [4], the system named is Plasmodium berghei. Briefly: Increased mean survival time in drug-sensitive Plasmodium berghei in mice (Mus musculus) at 80 mg/kg dose. In kind it is functional.
Assay [5] has as its system Plasmodium berghei. Description: Increased mean survival time in drug-sensitive Plasmodium berghei infected mice (Mus musculus) at 320 mg/kg; cured 2 of 5. In kind it is functional, organism-based. On the set-up: dose 320 mg/kg.
Assay [6] relates to Plasmodium berghei. Briefly: Increased mean survival time in drug-sensitive Plasmodium berghei infected mice (Mus musculus) at 40 mg/kg dose. Format: functional.
The test system of assay [7] is Plasmodium berghei. Briefly: Increased mean survival time in drug-sensitive Plasmodium berghei infected mice (Mus musculus) at 640 mg/kg; cured 2 of 5. Format: functional, organism-based. On the set-up: dose 640 mg/kg.
Assay [8] relates to Plasmodium berghei. Description: Increase in mean survival time in drug-sensitive Plasmodium berghei infected mice (Mus musculus) at 160 mg/kg dose. In kind it is functional.
Assay [9] deals with Plasmodium berghei. Description: Increased mean survival time in drug-sensitive Plasmodium berghei infected mice (Mus musculus) at 40 mg/kg; cured 3 of 5. In kind it is functional, organism-based. On the set-up: dose 40 mg/kg.
Assay [10] deals with Plasmodium berghei. Description: Increased mean survival time in drug-sensitive Plasmodium berghei infected mice (Mus musculus) at 80 mg/kg; active. Format: functional.
For assay [11], the system named is Plasmodium berghei. Description: Increased mean survival time in drug-sensitive Plasmodium berghei infected mice (Mus musculus) at 160 mg/kg; cured 3 of 5. Format: functional, organism-based. On the set-up: dose 160 mg/kg.
Assay [12] deals with Plasmodium berghei. Description: Antimalarial activity against Plasmodium berghei infected mice (Mus musculus) at 160 mg/kg; toxic in 1 of 5. Format: functional, organism-based. On the set-up: dose 160 mg/kg.
Assay [13] relates to Plasmodium berghei. Description: Antimalarial activity against Plasmodium berghei infected mice (Mus musculus) at 20 mg/kg; toxic in 1 of 5. In kind it is functional, organism-based. On the set-up: dose 20 mg/kg.
For assay [14], the system named is Plasmodium berghei. Briefly: Antimalarial activity against Plasmodium berghei infected mice (Mus musculus) at 320 mg/kg; toxic in 2 of 5. In kind it is functional, organism-based. On the set-up: dose 320 mg/kg.
The subject of assay [15] is Plasmodium berghei. Description: Antimalarial activity against Plasmodium berghei infected mice (Mus musculus) at 320 mg/kg; toxic in 3 of 5. In kind it is functional, organism-based. On the set-up: dose 320 mg/kg.
Assay [16] has as its system Plasmodium berghei. Briefly: Antimalarial activity against Plasmodium berghei infected mice (Mus musculus) at 80 mg/kg; toxic in 1 of 5. Format: functional, organism-based. On the set-up: dose 80 mg/kg.
Assay [17] relates to Plasmodium berghei. Description: Increased mean survival time in drug-sensitive Plasmodium berghei infected mice (Mus musculus) at 20 mg/kg dose. In kind it is functional.
Assay [18] concerns Plasmodium berghei. Briefly: Increased mean survival time in drug-sensitive Plasmodium berghei infected mice (Mus musculus) at 80 mg/kg; cured 5 of 5. On the set-up: dose 80 mg/kg. In kind it is functional, organism-based.
The test system of assay [19] is Plasmodium berghei. Description: Increased mean survival time in drug-sensitive Plasmodium berghei infected mice (Mus musculus) at 40 mg/kg; cured 4 of 5. Format: functional, organism-based. On the set-up: dose 40 mg/kg.
In assay [20] the test system is Plasmodium berghei. Description: Increased mean survival time in drug-sensitive Plasmodium berghei infected mice (Mus musculus) at 160 mg/kg; cured 2 of 5. Format: functional, organism-based. On the set-up: dose 160 mg/kg.
Assay [21] has as its system Plasmodium berghei. Briefly: Increased mean survival time in drug-sensitive Plasmodium berghei infected mice (Mus musculus) at 20 mg/kg; cured 3 of 5. Format: functional, organism-based. On the set-up: dose 20 mg/kg.
Assay [22] relates to Plasmodium berghei. Description: Increased mean survival time in drug-sensitive Plasmodium berghei infected mice (Mus musculus) at 320 mg/kg dose. Format: functional.
Assay [23] relates to Plasmodium berghei. Briefly: Antimalarial activity against Plasmodium berghei infected mice (Mus musculus) at 160 mg/kg; cured 1 of 5. In kind it is functional, organism-based. On the set-up: dose 160 mg/kg.
Assay [24] has as its system Plasmodium berghei. Briefly: Antimalarial activity against Plasmodium berghei infected mice (Mus musculus) at 160 mg/kg; toxic in 3 of 5. On the set-up: dose 160 mg/kg. Format: functional, organism-based.
For assay [25], the system named is Plasmodium berghei. Description: Antimalarial activity against Plasmodium berghei infected mice (Mus musculus) at 40 mg/kg; cured 1 of 5. On the set-up: dose 40 mg/kg. In kind it is functional, organism-based.
Assay [26] has as its system Plasmodium berghei. Description: Antimalarial activity against Plasmodium berghei infected mice (Mus musculus) at 640 mg/kg; toxic in 5 of 5. On the set-up: dose 640 mg/kg. In kind it is functional, organism-based.
Assay [27] relates to Plasmodium berghei. Briefly: Increased mean survival time in drug-sensitive Plasmodium berghei infected mice (Mus musculus) at 640 mg/kg; cured 3 of 5. In kind it is functional, organism-based. On the set-up: dose 640 mg/kg.
In assay [28] the test system is Plasmodium berghei. Description: Increase in mean survival time in drug-sensitive Plasmodium berghei infected mice (Mus musculus) at 160 mg/kg dose; cured 1 of 5. On the set-up: dose 160 mg/kg. Format: functional, organism-based.
Assay [29] deals with Plasmodium berghei. Briefly: Increased mean survival time in drug-sensitive Plasmodium berghei infected mice (Mus musculus) at 80 mg/kg; cures 4 of 5. Format: functional, organism-based. On the set-up: dose 80 mg/kg.
Assay [30] concerns Plasmodium berghei. Description: Increased mean survival time in drug-sensitive Plasmodium berghei infected mice (Mus musculus) at 40 mg/kg; active. In kind it is functional.
Assay [31] concerns Plasmodium berghei. Briefly: Antimalarial activity against Plasmodium berghei infected mice (Mus musculus) at 320 mg/kg; toxic in 5 of 5. Format: functional, organism-based. On the set-up: dose 320 mg/kg.
The subject of assay [32] is Plasmodium berghei. Description: Antimalarial activity against Plasmodium berghei in mice (Mus musculus) at 40 mg/kg; toxic in 3 of 5. Format: functional, organism-based. On the set-up: dose 40 mg/kg.

On to `CCOC(=O)N1CCN(/C(S)=N/N=C(\C)c2ccccn2)CC1`, for which the figures for the Survival time result with Plasmodium berghei [1], in the assay on Plasmodium berghei [2] and with Plasmodium berghei [3] were “Toxic in 5 of 5 mice”, “Cured 2 of 5 mice; toxic in 2 of 5 mice” and “Toxic in 5 of 5 mice”, respectively.
In the case of `C/C(=N\N=C(/[SeH])N1CCCCCC1)c1ccccn1`, the Survival time in the assay on Plasmodium berghei [4] is 4.6 days; with Plasmodium berghei [5], “Cured 2 of 5 mice”; with Plasmodium berghei [6], 1.7 days; with Plasmodium berghei [7], “Cured 2 of 5 mice”; in the assay on Plasmodium berghei [8], 7.3 days.
With `C/C(=N\N=C(/S)N1CCC(C)CC1)c1ccccn1`, the Survival time entry in the assay on Plasmodium berghei [1] is “Toxic in 5 of 5 mice”; in the assay on Plasmodium berghei [3], “Toxic in 5 of 5 mice”; in the assay with Plasmodium berghei [9], “Cured 3 of 5 mice”.
On to `CC(N/N=C(\S)N(C)C1CCCCC1)c1ccccn1` (stereo not given), for which the Survival time is 3.7 days in the assay with Plasmodium berghei [6]; 7.1 days in the assay on Plasmodium berghei [10]; “Cured 3 of 5 mice” in the assay on Plasmodium berghei [11]; “Toxic in 1 of 5 mice” with Plasmodium berghei [12]; “Toxic in 1 of 5 mice” with Plasmodium berghei [13]; “Cured 2 of 5 mice” with Plasmodium berghei [14]. Moreover, the Survival time result in the assay with Plasmodium berghei [15] was “Toxic in 3 of 5 mice”; with Plasmodium berghei [16], “Toxic in 1 of 5 mice”; in the assay on Plasmodium berghei [17], 2.9 days.
Turning to `C/C(=N\NC(=S)N1CCN(c2ccccn2)CC1)c1ccccn1`, the Survival time entry in the assay on Plasmodium berghei [1] is “Toxic in 5 of 5 mice”; with Plasmodium berghei [18] it was “Cured 5 of 5 mice”; in the assay on Plasmodium berghei [19], “Cured 4 of 5 mice”; in the assay on Plasmodium berghei [20], “Cured 2 of 5 mice”; in the assay with Plasmodium berghei [21], “Cured 3 of 5 mice”; with Plasmodium berghei [22] it was 0.7 days.
With `CC1CCN(/C(S)=N/NC(C)c2ccccn2)CC1` (stereo not given), the Survival time result was “Cured 1 of 5 mice” in the assay with Plasmodium berghei [23], “Toxic in 3 of 5 mice” with Plasmodium berghei [24], “Cured 1 of 5 mice” in the assay on Plasmodium berghei [25] and “Toxic in 5 of 5 mice” in the assay on Plasmodium berghei [26].
Consider `C/C(=N\NC(=S)N1CCCC1)c1ccccn1`, for which the figures for the Survival time result with Plasmodium berghei [1], in the assay with Plasmodium berghei [6] and in the assay on Plasmodium berghei [3] were “Toxic in 5 of 5 mice”, 8.9 days and “Toxic in 5 of 5 mice”, respectively.
Take `C/C(=N\N=C(/[SeH])N1CC2CCC(CC2)C1)c1ccccn1`: the Survival time result is “Cured 3 of 5 mice” in the assay with Plasmodium berghei [27]; 5.9 days in the assay on Plasmodium berghei [4]; “Cured 2 of 5 mice” with Plasmodium berghei [5]; 0.8 days with Plasmodium berghei [6]; “Cured 1 of 5 mice” in the assay on Plasmodium berghei [28]; -0.1 days with Plasmodium berghei [17].
Turning to `C/C(=N\NC(=S)N1CCCCCC1)c1ccccn1`, the Survival time result in the assay with Plasmodium berghei [5] is “Cured 2 of 5 mice; toxic in 2 of 5 mice”; with Plasmodium berghei [6] it was 6.2 days; in the assay with Plasmodium berghei [29], “Cured 4 of 5 mice”; in the assay on Plasmodium berghei [7], “Cured 2 of 5 mice; toxic in 3 of 5 mice”; in the assay with Plasmodium berghei [11], “Cured 3 of 5 mice; toxic in 1 of 5 mice”.
Regarding `CCOC(=O)N1CCN(/C(S)=N/NC(C)c2ccccn2)CC1` (stereo not given), the Survival time is 7.2 days in the assay with Plasmodium berghei [30]; “Toxic in 5 of 5 mice” with Plasmodium berghei [24]; “Toxic in 5 of 5 mice” in the assay with Plasmodium berghei [31]; “Toxic in 3 of 5 mice” in the assay with Plasmodium berghei [32]; “Toxic in 5 of 5 mice” with Plasmodium berghei [26]; 5.9 days in the assay on Plasmodium berghei [17].
